Experimental findings from the Bradley open melting point set (2014) are described below.

The structures appear in SMILES notation. Several values for one entry are separate records, joined by “and”; a condition that tells them apart may be missing. Equal values may be shown once.

As a reminder, the melting point is the temperature, or range, at which the solid turns liquid. For the compound `CNC(=O)Oc1cccc2ccccc12` [1-Naphthyl methylcarbamate], the melting point came to 142 °C.
Then `COc1cccc(OC)c1O` [2,6-dimethoxyphenol], with 55 °C; and `c1ccc([Si]2(c3ccccc3)O[Si](c3ccccc3)(c3ccccc3)O[Si](c3ccccc3)(c3ccccc3)O2)cc1` [hexaphenylcyclotrisiloxane], with 180 °C; and `CCCCCO` [Pentan-1-ol], with -78 °C.
In turn, `O/N=C(\c1ccccc1)C(O)c1ccccc1` (configuration not stated) [(2E)-2-(Hydroxyimino)-1,2-diphenylethanol] showed a melting point of 154 °C.
For `COC(=O)c1cc2c(OC)cccc2[nH]1` [methyl 4-methoxyindole-2-carboxylate], the melting point stood at 141 °C.
`O=C(CBr)c1ccc2c(c1)OCCCO2` [7-bromoacetyl-3,4-dihydro-1,5-benzodioxepin] showed a melting point of 76 °C.
Under `C[C@]12C=CC(=O)C=C1CC[C@@H]1[C@@H]2[C@@H](O)C[C@@]2(C)[C@H]1CC[C@]2(O)C(=O)CO` [Prednisolone] stands 240 °C; under `CCn1cc(C(=O)O)c(=O)c2ccc(C)nc21` [nalidixic acid], 230 °C.
`CCN(C(C)C)C(C)C` [N-ethyldiisopropylamine] showed a melting point of -46 °C.
With `OCc1ccc(CO)cc1` [1,4-benzenedimethanol], the melting point turned out to be 119 °C.
Regarding `O=C(O)c1ccc([N+](=O)[O-])cc1` [4-Nitrobenzoic acid], the melting point is 240 °C.
`Cn1cnc(C(=O)O)c1` [1-methylimidazole-4-carboxylic acid] showed a melting point of 242 °C.
As to `Cc1ccc(Cc2ccccc2)cc1` [4-benzyltoluene], the melting point was 5 °C.
Then `CS(=O)(=O)c1ccc(C(=O)O)cc1` [4-(methylsulfonyl)benzoic acid], with 273 °C; and `Nc1ccc(N)cc1` [1,4-phenylenediamine], with 142 °C; and `CCC(C)OC(C)=O` (configuration not stated) [sec-butyl acetate], with -99 °C.
For `COc1ccc(/N=N/c2sc(CC#N)nc2C)cc1`, the melting point came out at 159 °C.
For the compound `CCCC(C)S` (configuration not stated) [2-pentanethiol], the melting point is -112 °C.
Turning to `CCCSc1ccc2[nH]c(NC(=O)OC)nc2c1` [albendazole], the melting point was found to be 208 °C.
Consider `CCCC(=O)Nc1ccc(OCC(O)CNC(C)C)c(C(C)=O)c1` (configuration not stated) [Acebutolol], for which the melting point stood at 121 °C.
Take `COc1ccc2c(c1)CC1(CCC(O)(c3ccc(C(C)(C)C)cc3)CC1)C2=O` (configuration not stated): the melting point came to 166 °C.
The compound `C[C@]12CCC(=O)CC1CCC1=C2CC[C@@H]2C(=O)CC[C@@H]12` (some centres not stated) [10-methylgon-8-ene-3,17-dione] came in with a melting point of 138 °C.
`CC(=O)c1ccc(Cl)cc1O` [4'-chloro-2'-hydroxyacetophenone] displayed a melting point of 29 °C.
Take `Nn1c(S)nnc1-c1ccc(Cl)cc1` [4H-1,2,4-triazole-3-thiol, 4-amino-5-(4-chlorophenyl)-]: the melting point turned out to be 322 °C.
On to `CN(C)CCC=C1c2ccccc2CCc2ccccc21` [amitriptyline], for which the melting point stood at 196 °C.
The compound `N/C(N)=N/c1nc(CSCCC(N)=N/S(N)(=O)=O)cs1` [Famotidine] gave a melting point of 164 °C.
`C[C@]12CC[C@@H]3c4ccc(O)cc4CC[C@H]3[C@@H]1C[C@@H](O)[C@@H]2O` [estriol] gave a melting point of 282 °C.
`CCCCCCCCCCI` [1-iododecane] showed a melting point of -16 °C.
With `C/C(=C/C(=O)O)C(F)(F)F` [3-(trifluoromethyl)crotonic acid], the melting point turned out to be 29 °C.
For the compound `[O-][n+]1onc2ccccc21` [benzofuroxan], the melting point came out at 69 °C.
As for `NS(=O)(=O)c1cc2c(cc1Cl)NCNS2(=O)=O`, the melting point stood at 274 °C.
Under `CC(=O)Oc1ccccc1C(N)=O` [o-acetoxybenzamide] stands 138 °C; under `C[C@]12CC[C@H]3[C@@H](CCC4=CC(=O)CC[C@@]43C)[C@@H]1CC[C@@H]2OC(=O)CCc1ccccc1` [Testosterone phenylpropanoate], 116 °C; under `OCCN1CCN(CCCN2c3ccccc3Sc3ccc(Cl)cc32)CC1` [perphenazine], 96.9 °C.
Under `O=[N+]([O-])c1ccccc1CBr` [2-nitrobenzyl bromide] stands 47 °C; under `CCCCCCCc1ccccc1` [N-heptylbenzene], -48 °C; under `Brc1cc(Br)c(Br)cc1Br` [1,2,4,5-tetrabromobenzene], 182 °C.
Take `CCOC(=O)c1ccc(N)cc1` [Ethyl 4-aminobenzoate]: the melting point is 89 °C.
`CC(C)CCCC(C)C1CCC2C3CCC45CCC(=O)C4C5(C)C3CCC12C` (configuration not stated) [1,5-cyclocholestan-2-one] showed a melting point of 164 °C.
`c1ccc(CNCc2ccccc2)cc1` [dibenzylamine] showed a melting point of -26 °C.
With `Cc1c(C)c2c(c(C)c1O)CC[C@@](C)(CCC[C@H](C)CCC[C@H](C)CCCC(C)C)O2` [Vitamin E], the melting point worked out at 2 °C.
As to `Cc1cc(Br)cc(C)c1N=C=S` [4-bromo-2,6-dimethylphenyl isothiocyanate], the melting point stood at 80 °C.
In turn, `O=C(O)c1cccc(OCc2ccccc2)c1` [3-benzyloxybenzoic acid] gave a melting point of 134 °C.
On to `COC1OC(=O)c2ccccc21` (configuration not stated) [3-methoxy-2-benzofuran-1(3H)-one], for which the melting point stood at 44 °C.
On to `CCOCCOCCO` [2-(2-Ethoxyethoxy)ethanol], for which the melting point is -76 °C.
Compound `COc1cccc(C(C)=O)c1` [3'-methoxyacetophenone] came in with a melting point of -7 °C.
Consider `CCCCCCCCCCCCCC=O` [tetradecyl_aldehyde], for which the melting point was 24 °C.
With `C1COCOC1` [1,3-Dioxane], the melting point is -42 °C.
`Nc1c(Br)cc([N+](=O)[O-])cc1Br` [2,6-dibromo-4-nitroaniline] displayed a melting point of 207 °C.
Compound `CCCCOC(=O)c1ccc(O)cc1` [Butyl 4-hydroxybenzoate] displayed a melting point of 68.5 °C.
`O=C(Cl)c1ccccc1` [benzoyl chloride] came in with a melting point of -1 °C.
In the case of `Cn1c(/C(C#N)=N/Nc2ccc(Cl)cc2Cl)nc2ccccc21`, the melting point came to 161 °C.
Then `O=C(O)c1ccccc1Cl` [2-Chlorobenzoic acid], with 142 °C.
Regarding `O=c1[nH]cc(F)c(=O)[nH]1` [Fluorouracil], the melting point came out at 281 °C.
In the case of `C#CC1(O)CCC2C3CCC4C(C)(C)CCCC4(C)C3CCC21C` (configuration not stated) [4,4-dimethylpregn-20-yn-17-ol], the melting point is 157 °C.
Then `c1cc2c3c(cccc3c1)CC2` [acenaphthene], with 94 °C (2×) and 95 °C.
Then `Clc1cccc(Cl)c1Cl` [1,2,3-trichlorobenzene], with 54 °C.
The compound `Cc1ccc(C)c(C(=O)O)c1` [2,5-dimethylbenzoic acid] came in with a melting point of 134 °C.
As for `CNCc1ccccc1` [N-benzylmethylamine], the melting point is -55 °C.
Compound `CN(C)c1ccc(N)cc1` [N,N-dimethyl-p-phenylenediamine] displayed a melting point of 36 °C.
Regarding `ClC(Cl)=C/C3C(C(=O)OCc2cccc(Oc1ccccc1)c2)C3(C)C` (configuration not stated) [Permethrin], the melting point amounted to 34 °C.
For `O=C(O)c1cccc([N+](=O)[O-])c1` [3-Nitrobenzoic acid], the melting point worked out at 142 °C.
Turning to `CC(Br)C(Br)C(=O)O` (configuration not stated) [2,3-dibromobutyric acid], the melting point was 86 °C.
Consider `CC1=C(CC(=O)O)c2cc(F)ccc2/C1=C\c1ccc([S+](C)[O-])cc1` (configuration not stated) [Sulindac], for which the melting point was determined as 184 °C.
Then `CC(C)C[C@H](NC(=O)OCC1c2ccccc2-c2ccccc21)C(=O)O` [N-fmoc-L-leucine], with 154 °C; and `N#CCc1ccc(N)cc1` [4-aminobenzyl_cyanide], with 45 °C.
Under `OB(O)c1ccc(C(F)(F)F)cc1F` [2-fluoro-4-(trifluoromethyl)benzeneboronic acid] stands 114 °C; under `c1ccc(CN(CC2=NCCN2)c2ccccc2)cc1` [antazoline], 120 °C.
Compound `Clc1ccc(C(c2ccc(Cl)cc2)C(Cl)(Cl)Cl)cc1` [4,4'-DDT] showed a melting point of 110 °C.
As to `C(=N\c1ccccc1)/c1ccccc1` [N-benzylideneaniline], the melting point stood at 53 °C.
The compound `N#Cc1ccc2c(c1)N(CCCN1CCC(O)CC1)c1ccccc1S2` [perciyazine] yielded a melting point of 116 °C.
For the compound `c1ccc2c(c1)oc1ccccc12` [dibenzofuran], the melting point turned out to be 82 °C.
`COC1=CC(=O)C[C@@H](C)[C@]12Oc1c(Cl)c(OC)cc(OC)c1C2=O` [griseofulvin] came in with a melting point of 219 °C.
For `CC(=O)Oc1ccc(C(=O)O)cc1` [4-acetoxybenzoic_acid], the melting point turned out to be 194 °C.
In turn, `C=Cc1cccc([N+](=O)[O-])c1` [1-Nitro-3-vinylbenzene] returned a melting point of -5 °C.
As for `C=C1C[C@@H]2[C@H](CC[C@]3(C)C(=O)CC[C@@H]23)[C@@]2(C)C=CC(=O)C=C12` [Exemestane], the melting point was found to be 155 °C.
Under `O=[N+]([O-])c1ccc(Cl)cc1[N+](=O)[O-]` [1-chloro-3,4-dinitrobenzene] stands 23 °C; under `Ic1ccc(I)cc1` [1,4-diiodobenzene], 131 °C.
On to `OCc1ccc(F)cc1Cl` [2-chloro-4-fluorobenzyl alcohol], for which the melting point amounted to 45 °C.
`CNC(=O)NC` [N,N'-dimethylurea]: the melting point is 102 °C.
`Cc1ccccc1` [Toluene] showed a melting point of -93 °C.
`Brc1c(Br)c(Br)c(Br)c(Br)c1Br` [Hexabromobenzene] had a melting point of 306 °C.
Compound `O=C(O)CCCCCCCCCCC(=O)O` [dodecanedioic acid] showed a melting point of 129 °C.
Compound `O=C(O)Cc1ccccc1` [phenylacetic acid] came in with a melting point of 77.5 °C.
In turn, `CC(=O)OC(C)=O` [Acetic anhydride] yielded a melting point of -73 °C.
Under `C[C@@H](NC(=O)OCc1ccccc1)C(=O)O` [N-benzyloxycarbonyl-D-alanine] stands 85 °C.
